The source of these data is patent publication US12497403B2, “Factor XIa inhibitors” (Merck Sharp & Dohme LLC, priority 2021, dated 2025).

pIC50: −log10 of the molar value.

This assay concerns the target human Factor XIa (Homo sapiens, UniProt P03951). Nature of the assay: Factor XIa assay. It counts as biochemical. Particulars: human Factor XIa 0.04 nM, GPR-AFC substrate, 25° C., pH 7.4; read-out: FXIa IC50. The procedure:
The effectiveness of a compound of the present invention as an inhibitor of Coagulation Factor XIa can be determined using a relevant purified serine protease, and an appropriate synthetic substrate. The rate of hydrolysis of the chromogenic or fluorogenic substrate by the relevant serine protease was measured both in the absence and presence of compounds of the present invention. Assays were conducted at room temperature or at 37° C. […] A decrease in the rate of fluorescence change in the presence of inhibitor is indicative of enzyme inhibition. Such methods are known to one skilled in the art. The results of this assay are expressed as the half-maximal inhibitory concentrations (IC50), or the inhibitory constant, Ki.
Compounds were pre-incubated for 30 minutes at 25° C. with human (0.04 nM) Factor XIa in 50 mM HEPES buffer with 150 mM sodium chloride, 5 mM calcium chloride, 0.1% PEG 8000, pH 7.4. Factor XIa enzymatic activity was determined by addition of the substrate glycine-proline-arginine-7-amido-4-trifluoromethylcoumarin (GPR-AFC) and measurement of the fluorescence at 400/505 nm after a 60 minute incubation at 25° C. The % inhibition for each data point was calculated from the data and analyzed using the log (inhibitor) vs. response four parameters equation to determine the half-maximal inhibitory concentrations (IC50). The IC50 were converted to equilibrium inhibitory constants (Ki) using the Cheng-Prusoff equation.

Chain of human Factor XIa (P03951 388-625 limits assumed): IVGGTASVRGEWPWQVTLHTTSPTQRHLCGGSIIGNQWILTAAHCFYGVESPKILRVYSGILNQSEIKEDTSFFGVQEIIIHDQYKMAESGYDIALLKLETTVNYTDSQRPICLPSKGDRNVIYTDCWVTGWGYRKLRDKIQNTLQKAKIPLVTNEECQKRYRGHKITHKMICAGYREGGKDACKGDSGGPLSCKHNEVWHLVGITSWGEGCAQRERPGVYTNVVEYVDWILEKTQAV
Chain of human Factor XIa (P03951 19-387 partner limits assumed): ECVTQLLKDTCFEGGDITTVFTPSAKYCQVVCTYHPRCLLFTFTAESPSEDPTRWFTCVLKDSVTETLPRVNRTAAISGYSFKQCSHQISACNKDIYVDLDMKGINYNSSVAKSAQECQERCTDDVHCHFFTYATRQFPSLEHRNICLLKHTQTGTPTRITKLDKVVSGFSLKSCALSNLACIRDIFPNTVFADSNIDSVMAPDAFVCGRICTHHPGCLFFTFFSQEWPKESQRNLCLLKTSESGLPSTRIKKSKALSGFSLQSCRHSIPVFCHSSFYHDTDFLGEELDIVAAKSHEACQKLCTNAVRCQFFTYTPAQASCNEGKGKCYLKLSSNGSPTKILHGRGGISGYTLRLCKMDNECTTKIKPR

Turning to `CCOC(=O)c1[nH]c2nc1-c1ccc(NC(=O)OC)cc1NC(=O)C(C)(C)CCC[C@@H]2c1ccc(-c2cc(F)ccc2-n2cc(C(F)(F)F)cn2)c[n+]1[O-]` [Example 1, (R,Z)-2-(1^5-(ethoxycarbonyl)-2^4-((methoxycarbonyl)amino)-5,5-dimethyl-4-oxo-1^1H-3-aza-1(4,2)-imidazola-2(1,2)-benzenacyclononaphane-9-yl)-5-(5-fluoro-2-(4-(trifluoromethyl)-1H-pyrazol-1-yl)phenyl)pyridine 1-oxide], the pIC50 is 9.06.
For `CCOC(=O)c1[nH]c2nc1-c1ccc(NC(=O)OC)cc1NC(=O)C(C)(C)CCC[C@@H]2c1ccc(-c2cccc(Cl)c2F)c[n+]1[O-]` [Example 5, (R,Z)-5-(3-chloro-2-fluorophenyl)-2-(1^5-(ethoxycarbonyl)-2^4-((methoxycarbonyl)amino)-5,5-dimethyl-4-oxo-1^1H-3-aza-1(4,2)-imidazola-2(1,2)-benzenacyclononaphane-9-yl)pyridine 1-oxide], the pIC50 was 9.72.
To `CCOC(=O)c1[nH]c2nc1-c1ccc(NC(=O)OC)cc1NC(=O)C(C)(C)CCC[C@@H]2c1ccc(-c2cc(F)ccc2OC(F)F)c[n+]1[O-]` [Example 3, (R,Z)-5-(2-(difluoromethoxy)-5-fluorophenyl)-2-(1^5-(ethoxycarbonyl)-2^4-((methoxycarbonyl)amino)-5,5-dimethyl-4-oxo-1^1H-3-aza-1(4,2)-imidazola-2(1,2)-benzenacyclononaphane-9-yl)pyridine 1-oxide] belongs 9.59; to `CCOC(=O)c1[nH]c2nc1-c1ccc(NC(=O)OC)cc1NC(=O)C(C)(C)CCC[C@@H]2c1ccc(-c2cc(Cl)cnc2OC(F)F)c[n+]1[O-]` [Example 4, (R,Z)-5′-chloro-2′-(difluoromethoxy)-6-(1^5-(ethoxycarbonyl)-2^4-((methoxycarbonyl)amino)-5,5-dimethyl-4-oxo-1^1H-3-aza-1(4,2)-imidazola-2(1,2)-benzenacyclononaphane-9-yl)-[3,3′-bipyridine] 1-oxide], 8.89; to `COC(=O)Nc1ccc2c(c1)NC(=O)C(C)(C)CCC[C@H](c1ccc(-c3cc(F)ccc3-n3cc(C(F)(F)F)cn3)c[n+]1[O-])c1nc-2c(C(=O)OC)[nH]1` [Example 6, (R,Z)-5-(5-fluoro-2-(4-(trifluoromethyl)-1H-pyrazol-1-yl)phenyl)-2-(1^5-(methoxycarbonyl)-2^4-((methoxycarbonyl)amino)-5,5-dimethyl-4-oxo-1^1H-3-aza-1(4,2)-imidazola-2(1,2)-benzenacyclononaphane-9-yl)pyridine 1-oxide], 9.09.
The same measure for `CCOC(=O)c1[nH]c2nc1-c1ccc(NC(=O)OC)cc1NC(=O)C(C)(C)CCC[C@@H]2c1ccc(-c2cc(Cl)ccc2-n2cc(C(F)(F)F)cn2)c[n+]1[O-]` [Example 2, (R,Z)-5-(5-chloro-2-(4-(trifluoromethyl)-1H-pyrazol-1-yl)phenyl)-2-(1^5-(ethoxycarbonyl)-2^4-((methoxycarbonyl)amino)-5,5-dimethyl-4-oxo-1^1H-3-aza-1(4,2)-imidazola-2(1,2)-benzenacyclononaphane-9-yl)pyridine 1-oxide]: 9.01.
